Test results as given in US20260216193A1, “TREATMENT OF HAND ECZEMA” (LEO Pharma A/S, priority 2016, published 2026).
“Also recorded” adds a separate entry of the source.

Test system: subjects with chronic hand eczema
Test: phase 2a clinical trial, twice daily topical ointment 30 mg/g vs ointment vehicle for 8 weeks
Type: in vivo, human
Experimental: The invention provides a clinical trial to compare efficacy of twice daily topical ointment with 30 mg/g of the compound of formula (I), with an ointment vehicle for 8 weeks in the treatment of hand eczema. The compound of formula (I) is formulated in an ointment containing the active compound in 30 mg/g, white soft paraffin, hard paraffin and squalane. Dosis range will be a thin layer covering the affected areas on the hands corresponding to 1.7 mg/cm^2 of the compound of formula (I). The primary efficacy parameter for ‘treatment success’ is Physician's Global Assessment of disease severity (PGA). […] Patient's Global Assessment of disease severity (PaGA) was recorded at the same visits. • 1. […] In overall good health including well controlled diseases (e.g. hypertension, diabetes and thyroid disease) as determined by medical history, physical examination, electrocardiogram (ECG), vital signs (blood pressure, heart rate and body temperature) and clinical laboratory evaluation. […]

## C[C@H]1CN(C(=O)CC#N)[C@]12CCN(c1ncnc3[nH]ccc13)C2 [compound of formula (I), 3-[(3S,4R)-3-methyl-6-(7H-pyrrolo[2,3-d]pyrimidin-4-yl)-1,6-diazaspiro[3.4]octan-1-yl]-3-oxopropanenitrile]
Ointment 30 mg/g twice daily topical vs ointment vehicle, up to 8 weeks, prespecified analysis at week 8, subjects with chronic hand eczema
  “treatment success” according to Physician's Global Assessment of disease severity (PGA): resulted in “treatment success”; also recorded: statistically significant (P=0.009) difference in favor
Ointment 30 mg/g, twice daily topical, patients with hand eczema
  safety and tolerability: safe and well tolerated
